Source: patent US20220217975A1, “GREEN FORMULATION TO REDUCE VOLATILITY AND LEACHING OF PESTICIDES” (POLITECNICO DI TORINO, priority 2019, published 2022)
Converted amounts (≈) assume the structure as drawn. Where two headings read alike, the source gives them in different places.

Experiments:
[1] = Volatility test of the active ingredient; format: physicochemical; conditions: 200 mL deionized water, 92 mg active ingredient, stirred open at 300 rpm, over 4 days, FIG. 6
Procedure: The procedure involved the use of three solutions: • Solution A: formulation of the following patent suspended in 200 mL of deionized water; • Solution B: pure dicamba active ingredient, dissolved in 200 mL of deionized water; • Solution C: 200 mL of deionized water.
All the previous solutions were stirred without lids, caps or parafilm that would hinder the evaporation. The characterization took place by sampling the solutions every 24 hours and analysing them with a spectrophotometer. The withdrawn amount was replenished with deionized water.
Some specifications: • the clay suspended in solution A has an active ingredient content by weight of approximately 92 mg; • in order to make a comparison, and therefore to evaluate whether the formulation actually makes the dicamba less volatile, the amount by weight of the active ingredient inserted in solution B is identical to that adsorbed on the clay, that is 92 mg; • the weighing of the solutions, to evaluate the amount of evaporated substance, also includes the contribution of water. […]

[2] = cited from earlier work
[3] = literature; cited from earlier work
[4] = dicamba active ingredient; cited from earlier work

In the case of `COc1c(Cl)ccc(Cl)c1C(=O)O` [dicamba, 3,6-dichloro-2-methoxybenzoic acid], the “herbicide loss by volatilization (in words)” value [1] is given as “initial rapid volatilization and to a subsequent slow and progressive loss in mass”, the solubility in water ([2]; pH approximately 2 (no pH adjustment)) is given as ~8 mg/mL (≈ 36.2 mM) and the solubility in water ([2]; pH values higher than 4.1) is given as > 250 mg/mL. For the same molecule, the “half-life time, most frequently reported values” [3] was “lower than 20 days” and the vapour pressure [4] was 2.6·10^−8 atm.
